From ChEMBL document CHEMBL1201862, “PubChem BioAssay data set” (2004) come the findings set out here.

In general, EC50 refers to the midpoint of the concentration-response curve. The term AC50 denotes the midpoint of the concentration-response curve, whichever way the signal moves. As a reminder, the IC50 is the midpoint of a concentration-inhibition curve.

A short description of experiment [1]: Luminescence Cell-Based Dose Confirmation HTS to Identify Inhibitors of Platelet Dense Granule Release. [Related pubchem assays: 1663 (Primary HTS), 1678 (Summary of Project)]. The class given is functional.
The nature of experiment [2]: HepG2 cell cytotoxicity, dose response, cytotoxicity control, ATP luminescence, cherry-pick, activator set 2 (AID 1053143). Type of experiment: functional, cell-based.
The target in experiment [3] is Luciferin 4-monooxygenase (Photinus pyralis, UniProt P08659). Nature of the experiment: firefly luciferase enzyme inhibitors, dose response, biochemical, luminescence (AID 1891).
Luciferin 4-monooxygenase, sequence (P08659 whole entry): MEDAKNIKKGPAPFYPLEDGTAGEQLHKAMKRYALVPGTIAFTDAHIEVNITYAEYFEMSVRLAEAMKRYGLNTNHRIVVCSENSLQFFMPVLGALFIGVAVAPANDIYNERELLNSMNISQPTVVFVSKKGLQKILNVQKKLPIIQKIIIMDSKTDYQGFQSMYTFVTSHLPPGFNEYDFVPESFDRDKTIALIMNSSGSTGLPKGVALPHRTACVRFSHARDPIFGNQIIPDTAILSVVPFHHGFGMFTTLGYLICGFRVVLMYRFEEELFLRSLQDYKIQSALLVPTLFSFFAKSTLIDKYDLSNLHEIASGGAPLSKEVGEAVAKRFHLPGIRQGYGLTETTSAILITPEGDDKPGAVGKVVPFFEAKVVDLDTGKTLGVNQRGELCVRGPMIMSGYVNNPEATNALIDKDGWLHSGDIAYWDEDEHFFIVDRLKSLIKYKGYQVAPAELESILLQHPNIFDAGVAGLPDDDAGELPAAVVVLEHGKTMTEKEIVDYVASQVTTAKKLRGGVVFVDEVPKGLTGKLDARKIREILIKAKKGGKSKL
A short description of experiment [4]: inhibitors of intracellular T. cruzi replication, confirmation, NIH3T3 host cells, beta-gal luminescence (AID 2044).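 Also: intracellular parasites grown in NIH/3T3 mouse fibroblasts as host cells; luminescent beta-galactosidase reporter signal from transgenic T. cruzi replicating inside host cells; inhibitors lower the luminescence signal.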 Type of experiment: functional, cell-based.
Experiment [5] can be described thus: cytotoxicity toward NIH3T3 fibroblasts, dose response, counter-screen, cell-based, ATP luminescence, mouse fibroblasts (AID 2010).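 Also: cells exposed to compound for about 90 hours before reading.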 Type of experiment: functional.
Experiment [6] deals with HEK293. The experiment in a line: cells. The class given is functional, cell-based. The following applies: Homo sapiens.
Experiment [7] concerns the target COUP transcription factor 2 (Homo sapiens, UniProt P24468). Nature of the experiment: Luminescence-based cell-based high throughput dose response assay to identify inhibitors of COUP-TFII (NR2F2). Type of experiment: functional.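 Also: HEK293 cells transiently cotransfected with COUP-TFII expression vector and reporter; luciferase reporter luminescence driven by COUP-TFII from the pX2-168 reporter plasmid.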
The test system of experiment [8] is HEK293. The experiment in a line: NOD2 signaling inhibitors in MDP-stimulated cells, cell-based, uHTS, luminescence (AID 2001). Type of experiment: functional. The settings on record: Homo sapiens.
Experiment [9] has as its system HEK293. The experiment in a line: cells. The class given is functional, cell-based. The settings on record: Homo sapiens. The source holds these as a separate data set.
Experiment [10] is described as follows: control 3'UTR Renilla luciferase suppression, dose response, counter-screen for Shn3 inhibitor project, cell-based, Clone20-Shn3RL, cherry-picked (AID 624133). Type of experiment: functional. A general note: A counterscreen serves to expose hits that act by an unwanted route or on another target.
Experiment [11] is described as follows: HepG2 cell cytotoxicity, dose response, cytotoxicity control for Shn3 inhibitor project, CellTiter-Glo, cherry-picked (AID 624134). Type of experiment: functional, cell-based. Background: ATP-based viability assays read luminescence as a measure of living cells.
In experiment [12] the target is T1, Galanin receptor type 3 (Homo sapiens, UniProt O60755).
T1 sequence (O60755 whole entry): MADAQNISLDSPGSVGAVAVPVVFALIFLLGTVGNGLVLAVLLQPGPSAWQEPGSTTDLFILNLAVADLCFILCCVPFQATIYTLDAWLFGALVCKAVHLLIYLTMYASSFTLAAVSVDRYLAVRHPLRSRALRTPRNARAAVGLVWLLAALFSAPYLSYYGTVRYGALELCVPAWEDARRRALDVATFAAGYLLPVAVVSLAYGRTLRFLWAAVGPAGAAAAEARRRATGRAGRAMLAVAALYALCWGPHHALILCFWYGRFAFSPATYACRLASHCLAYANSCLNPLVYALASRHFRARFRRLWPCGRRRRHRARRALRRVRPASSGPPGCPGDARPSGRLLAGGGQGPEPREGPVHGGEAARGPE
The experiment in a line: Fluorescence-based cell-based primary high throughput dose response assay to identify antagonists of the Galanin Receptor 3 (GalR3). Type of experiment: functional.

Experiment [13] in a line: cells. The class given is functional, cell-based. The settings on record: HEK-CNG.
Experiment [14] in a line: Shn3 3'UTR reporter inhibitors, dose response, cell-based, Clone20 osteoblasts, firefly luciferase, cherry-picked (AID 624132).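 Also: firefly luciferase luminescence from reporter carrying the Shn3 3'UTR in osteoblasts.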 The class given is functional.
Experiment [15] deals with HEK293. The experiment in a line: NOD1 signaling inhibitors, primary screen, cell-based, luminescence, uHTS (AID 1578). The class given is functional. The following applies: Homo sapiens.
In experiment [16] the target is Kallikrein-7 (Homo sapiens, UniProt P49862). The experiment in a line: Fluorescence Intensity-based biochemical primary high throughput dose response assay to identify activators of kallikrein-7 (K7) zymogen.
Kallikrein-7, sequence (P49862 whole entry): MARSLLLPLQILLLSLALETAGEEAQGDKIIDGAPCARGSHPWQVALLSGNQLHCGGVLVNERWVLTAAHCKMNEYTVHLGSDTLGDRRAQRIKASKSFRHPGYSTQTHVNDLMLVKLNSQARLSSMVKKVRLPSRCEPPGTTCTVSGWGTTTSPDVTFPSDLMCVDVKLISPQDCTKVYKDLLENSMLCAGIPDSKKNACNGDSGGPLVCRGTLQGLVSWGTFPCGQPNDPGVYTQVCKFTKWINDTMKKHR
The nature of experiment [17]: cells.

The structures appear in SMILES notation. Activity calls are given as the source filed them. Some results are limits rather than exact numbers.

COUP transcription factor 2, sequence (P24468 whole entry): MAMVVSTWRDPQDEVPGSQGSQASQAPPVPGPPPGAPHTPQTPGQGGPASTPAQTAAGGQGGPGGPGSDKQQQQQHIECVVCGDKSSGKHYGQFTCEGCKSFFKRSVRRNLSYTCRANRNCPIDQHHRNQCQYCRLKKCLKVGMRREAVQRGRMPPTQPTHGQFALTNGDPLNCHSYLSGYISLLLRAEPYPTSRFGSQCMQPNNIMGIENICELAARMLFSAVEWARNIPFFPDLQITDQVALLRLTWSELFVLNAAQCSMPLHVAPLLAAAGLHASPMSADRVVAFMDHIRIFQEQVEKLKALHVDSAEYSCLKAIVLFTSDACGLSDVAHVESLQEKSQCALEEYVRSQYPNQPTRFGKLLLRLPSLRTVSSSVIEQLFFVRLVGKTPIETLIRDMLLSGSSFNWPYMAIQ

With `Cc1cc(NC(=O)c2cccc(F)c2)ncc1NC(=O)c1ccco1`, the concentration giving a half-maximal response (EC50) in experiment [1] was 7.21 µM (active); in experiment [3], 7.28 µM (active). The AC50 in experiment [2] was 26 µM (active).
As for `CC1CCC(C(C)C)C(OC(=O)COC(=O)c2cc(O)ccc2N)C1` (stereo not drawn), the EC50 was 4.92 µM (active) in [4] and > 60 µM (not active) in [5]. In [2], the AC50 is 26 µM (active).
As to `O=C(Cc1ccc(Cl)cc1Cl)Nc1ccncc1Cl`, the IC50 in experiment [6] was > 20 µM (inactive); in [7], 11.6 µM (inactive); in experiment [8], 6.02 µM (active); in experiment [9] it was 5.77 µM (active); in experiment [12], 4.44 µM (active). Besides, the AC50 in [10] was 3.91 µM (active); in [11], 2.91 µM (active); in [14] it was 1.63 µM (active). The EC50 was > 29.9 µM (inactive) in [13] and 3.7 µM (active) in experiment [15].
As for `CCCc1cc(NCCN(C)C)n2c(nc3ccccc32)c1C#N`, the EC50 in [16] is > 69.5 µM (inactive).
With `Sc1nc2ccccc2n2c(S)nnc12`, the IC50 in experiment [17] was > 138 µM (inactive).
